One may read the IC50 as the concentration at which inhibition is half-maximal. One may read the Km as the concentration of substrate that gives half-maximal velocity.

This is an account of results in patent US7588906B2, “Hydrogels for biomolecule analysis and corresponding method to analyze biomolecules” (Wisconsin Alumni Research Foundation, priority 2004, dated 2009).

The target in data set [1] is T1, Bcr-Abl (K562 cell lysate) (Homo sapiens, UniProt P00519).
T1 construct: Source of Bcr-Abl tyrosine kinase: K562 cells (American Type Culture Collection, Manassas, Va.); endogenous in cells; host or cells: K562 cells (ATCC), clarified total cell lysate; the other entry of the earlier key: BCR (P11274, Breakpoint cluster region protein)
Put plainly: Array-based K562 cell lysate kinase assay on GST-Crkl substrates immobilized in polyacrylamide hydrogels, ECL phosphotyrosine detection. Format: biochemical. To be noted: for Inhibition of Bcr-Abl activity over the range studied / Inhibition of Bcr-Abl activity at 100 μM / Inhibition of Bcr-Abl activity at 1 mM: GST-Crkl (SH3), 2 h; for Inhibition of Bcr-Abl activity over the range studied: 100 nM to 1 mM inhibitor; for IC50: GST-Crkl (SH3) 165 ng/mm^2, 2 h, inhibitor 100 nM to 1 mM, read-out: IC50 for inhibition of Bcr-Abl activity, inhibitor screen; for Inhibition of Bcr-Abl activity at 100 μM: 100 μM inhibitor; for Inhibition of Bcr-Abl activity at 1 mM: 1 mM inhibitor. The procedure:
Preparation of K562 and HL60 Cell Lysates: K562 and HL60 cells (ATCC, Manassas, Va.) were cultured at 37° C. and 5% CO2 in RPMI-1640 media (Cambrex Bio Science, Walkersville, Md.) containing 100 units/ml penicillin, 100 μg/ml streptomycin, and 10% FBS. For lysis, cells were resuspended at 5×10^7 cells/ml in lysis buffer (42.3 mM HEPES, 126 mM NaCl, 1.27 mM MgCl2, 0.85 mM EDTA, 84.5 mM NaF, 8.45 mM sodium pyrophosphate, 0.169 mM sodium orthovanadate, 1 mM PMSF, 0.95% Triton X-100, 9.5% glycerol, 4% 25× complete protease inhibitor, pH 7.4) and incubated on ice for 20 min. The total cell lysate was then clarified by spinning at 1500 rpm for 10 min. Total protein concentration was determined via a Pierce BCA protein assay kit (Pierce, Rockford, Ill.) and cell lysates were stored at −80° C. until further use.
Fabrication of Protein Arrays: Glass slides were acrylic-functionalized and GST-Crkl fusion proteins were acrylic-labeled as described in the previous Examples. Briefly, fusion proteins were labeled on primary amines by reaction with 6-((acrylo)amino) hexanoic acid, succinimidyl ester (Molecular Probes, Eugene, Oreg.) and clean glass slides were functionalized via reaction with (3-acryloxypropyl)-trimethoxysilane (Gelest, Tullytown, Pa.).
Following functionalization of the glass slides, a thin layer of 18.8% polyacrylamide gel was attached to the glass surface. Forty μl of a mixture containing 125 μl 1.5 M Tris, pH 8.8; 285 μl 33% acrylamide mix (0.86 g N,N′-methylenebisacrylamide (Bis) and 32.14 g acrylamide in a total volume of 100 ml); 5 μl 10% ammonium persulfate (APS); 75 μl 100% glycerol; 0.5 μl N,N,N′,N′-tetramethylethylenediamine (TEMED); and 9.5 μl water was sandwiched between an acrylic-functionalized glass slide and a clean glass plate and allowed to polymerize in a N2 environment at room temperature for 30 min. The glass plate was then removed and 1 μl protein spots were polymerized on top of the 18.8% acrylamide base layer from the following mixture: 6.25 μl 1.5 M Tris, pH 8.8; 3 μl 33% acrylamide mix; 0.5 μl 10% APS; 3.75 μl 100% glycerol; 0.1 μl TEMED; 0 to 7.5 μl acrylic-labeled GST-Crkl protein solution; and water to a total volume of 25 μl. Additionally, 3 μl spacer spots of the above mixture without protein were added on the exterior corners of the protein array for the subsequent creation of a reaction chamber as described below. After attachment of the protein-acrylamide copolymer spots the slides were washed by briefly dipping into approximately 250 ml of TBST (10 mM Tris-HCl, 100 mM NaCl, 0.1% Tween-20, pH 7.5) followed by a 15 minute and two 5 minute washes with slight agitation in approximately 20 ml of TBST. Slides were then washed by briefly dipping into approximately 250 ml of water followed by two 5 minute washes with slight agitation in approximately 20 ml of water, before being stored overnight at 4° C. in Abl kinase assay buffer (50 mM Tris-HCl, 10 mM MgCl2, 100 μM EDTA, 1 mM DTT, 0.015% Brij 35, 100 μg/ml BSA, pH 7.5).
Array-Based Kinase Assays: Just prior to the kinase assay, the glass slides were removed from the Abl kinase assay buffer and dried under a stream of compressed air. Careful attention was paid to make sure that only the bare portions of the slide were dried and the polyacrylamide spots and polyacrylamide base layer remained hydrated. Using the 3 μl spacer spots, a reaction chamber was then created by suspending a clean glass slide over top of the 1 μl protein-acrylamide copolymer hydrogel spots. […] Aliquots (250 μl) of these kinase reaction mixtures were then applied to each reaction chamber and the reactions allowed to proceed for 30 min to 5 h at 30° C. in a saturated environment. After the reaction, the glass slide used to create the reaction chamber was removed and the protein array was washed by briefly dipping into approximately 250 ml TBST followed by a 15 minute and two 5 minute washes with slight agitation in approximately 20 ml of TBST.

In data set [2] the test system is Chronic Myeloid Leukemia (CML). To be noted: cited from earlier work.
The target in data set [3] is T2, protein-tyrosine kinase p60c-src (Homo sapiens, UniProt P12931).
T2 construct: purchased Calbiochem, San Diego, Calif
As to the kind of experiment: Solution kinase assay, phosphorylation of GST-[…]. Format: biochemical. As to conditions: solution reaction, Lineweaver-Burk plot. The procedure:
Solution protein kinase assays with protein-tyrosine kinase p60^c-src (Calbiochem, San Diego, Calif.) were carried out according to the manufacture's instructions. Briefly, reaction mixtures containing 1.5 μl of 50% glycerol, 1.5 μl of ATP mix (0.15 mM ATP, 30 mM MgCl2), 0.3 units of p60^c-src in 1.5 μl kinase dilution buffer (50 mM HEPES, 0.1 mM EDTA, 0.015% Brij 35, 0.1 mg/ml BSA, 0.2% β-mercaptoethanol, pH 7.5), and 1 μl GST-[…] (SEQ. ID. NO: 1) solution (50 mM HEPES, 0.1 mM EDTA, 0.015% Brij 35, pH 7.5 containing anywhere from 0 to 600 ng of GST-[…]) were incubated at 37° C. for times ranging from 10 minutes to 5.5 hours. After each kinase reaction the samples were mixed with 94.5 μl of TBS (10 mM Tris-HCl, 100 mM NaCl, pH 7.5) containing 1% SDS and heated to 97° C. for 5 minutes. Upon cooling, the samples were transferred to a nitrocellulose membrane using a Dot Blot apparatus (Biorad, Hercules, Calif.) following the manufacture's instructions. Prior to assembly of the Dot Blot apparatus, the membrane was wetted in TBS for 10 minutes. The apparatus was then assembled and each well was washed twice with 100 μl of TBS. 50 μl of the kinase reaction product was applied to each well. After application of the reaction mixture the wells were washed twice with 200 μl of TBS containing 0.05% Tween-20. […]

Data set [4] has as its target T2, protein-tyrosine kinase p60c-src. As to the kind of experiment: Surface kinase assay, phosphorylation of hydrogel-immobilized GST-[…]. It is filed as biochemical. The procedure:
Surface protein kinase assays were carried out in a fashion similar to the solution kinase assays. Glass slides containing 0 to 600 ng of GST-[…] (SEQ. ID. NO: 1) per 1 μl polyacrylamide spot were prepared as above and stored overnight in kinase assay buffer (50 mM HEPES, 0.1 mM EDTA, 0.015% Brij 35, pH 7.5) at 4° C. Just prior to the kinase assay, these slides were dried under a stream of compressed air. […] The protein kinase reaction mixture containing 1.5 μl of 50% glycerol, 1.5 μl of ATP mix, and 0.3 units of p60^c-src in 1.5 μl of kinase dilution buffer was placed on top of each polyacrylamide spot and the slides were incubated in a humidity chamber at 37° C. for 10 minutes to 5.5 hours.
In the case of phosphotyrosine detection, a similar procedure was followed with the substitution of TBST for PBST as the buffer and BSA for milk as the blocking agent. These substitutions were required to reduce the nonspecific binding of the secondary antibody used in this detection scheme. […] The slides were then stored in TBST until detection.
In the case of the nitrocellulose membranes, 20 ml of ECL detection reagent was used per membrane.

The target of data set [5] is T3, v-Abl tyrosine kinase (Abelson murine leukemia virus, UniProt P00521).
T3 sequence (P00521 1-746): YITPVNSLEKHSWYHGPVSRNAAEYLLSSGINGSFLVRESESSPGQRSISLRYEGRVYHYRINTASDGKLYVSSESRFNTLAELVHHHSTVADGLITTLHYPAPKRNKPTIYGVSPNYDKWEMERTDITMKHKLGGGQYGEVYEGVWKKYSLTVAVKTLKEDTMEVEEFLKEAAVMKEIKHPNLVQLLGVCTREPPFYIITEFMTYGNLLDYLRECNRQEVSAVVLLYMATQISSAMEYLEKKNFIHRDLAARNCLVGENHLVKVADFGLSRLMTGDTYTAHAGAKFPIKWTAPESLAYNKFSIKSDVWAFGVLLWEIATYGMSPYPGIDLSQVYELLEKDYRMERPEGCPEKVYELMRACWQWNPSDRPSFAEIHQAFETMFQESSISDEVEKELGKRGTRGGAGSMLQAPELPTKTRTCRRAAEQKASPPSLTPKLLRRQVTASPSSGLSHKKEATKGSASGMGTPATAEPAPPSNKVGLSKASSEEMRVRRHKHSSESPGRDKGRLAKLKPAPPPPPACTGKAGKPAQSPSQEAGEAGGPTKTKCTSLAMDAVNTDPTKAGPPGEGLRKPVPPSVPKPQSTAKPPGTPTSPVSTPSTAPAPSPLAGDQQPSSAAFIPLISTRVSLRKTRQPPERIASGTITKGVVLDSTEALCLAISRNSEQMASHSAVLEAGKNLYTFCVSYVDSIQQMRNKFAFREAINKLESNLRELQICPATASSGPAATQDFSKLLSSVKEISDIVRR
Put plainly: v-Abl phosphorylation of hydrogel-immobilized Abl peptide, MALDI mass spectrometry detection. Format: biochemical. To be noted: 3 hours, 30° C., estimated from MALDI spectrum FIG. 24B.
From the text: The acrylic-labeled peptides were then incorporated into peptide-acrylamide copolymer hydrogels as described in the previous examples. Briefly recapping, individual peptide acrylamide copolymer hydrogel spots were attached to stainless steal MALDI target plates (16) (Applied Biosystems, Foster, Calif.) and acrylic-functionalized glass slides.
The peptide-acrylamide copolymer hydrogels were then subjected to enzyme-mediated phosphorylation reactions. Substrates containing peptide-acrylamide copolymer hydrogels were washed by sonication in approximately 20 ml of H2O for 10 mm and dried under compressed air. The substrates were then reconstituted in a v-Abl reaction mixture and incubated at 30° C. in a saturated environment for 3 hours. […] Following the phosphorylation reaction, the solid substrates were sonicated twice in approximately 20 ml of H2O for 10 mm and dried under compressed air.
After the phosphorylation reactions, the copolymer hydrogels were subjected to MALDI mass spectrometry analysis. Stainless steel MALDI target plates and glass slides containing peptide-acrylamide copolymer hydrogels were analyzed on an ABI Voyager 4700 MALDI-TOF/TOF mass spectrometer (Applied Biosystems). […] The samples were then analyzed in linear positive, linear negative, reflector positive, and reflector negative modes to detect the phosphorylated samples.

Where two headings read alike, the source gives them in different places. Ends that are not written are not given here.

T1 sequence (P00519 with tags, fused parts or gaps): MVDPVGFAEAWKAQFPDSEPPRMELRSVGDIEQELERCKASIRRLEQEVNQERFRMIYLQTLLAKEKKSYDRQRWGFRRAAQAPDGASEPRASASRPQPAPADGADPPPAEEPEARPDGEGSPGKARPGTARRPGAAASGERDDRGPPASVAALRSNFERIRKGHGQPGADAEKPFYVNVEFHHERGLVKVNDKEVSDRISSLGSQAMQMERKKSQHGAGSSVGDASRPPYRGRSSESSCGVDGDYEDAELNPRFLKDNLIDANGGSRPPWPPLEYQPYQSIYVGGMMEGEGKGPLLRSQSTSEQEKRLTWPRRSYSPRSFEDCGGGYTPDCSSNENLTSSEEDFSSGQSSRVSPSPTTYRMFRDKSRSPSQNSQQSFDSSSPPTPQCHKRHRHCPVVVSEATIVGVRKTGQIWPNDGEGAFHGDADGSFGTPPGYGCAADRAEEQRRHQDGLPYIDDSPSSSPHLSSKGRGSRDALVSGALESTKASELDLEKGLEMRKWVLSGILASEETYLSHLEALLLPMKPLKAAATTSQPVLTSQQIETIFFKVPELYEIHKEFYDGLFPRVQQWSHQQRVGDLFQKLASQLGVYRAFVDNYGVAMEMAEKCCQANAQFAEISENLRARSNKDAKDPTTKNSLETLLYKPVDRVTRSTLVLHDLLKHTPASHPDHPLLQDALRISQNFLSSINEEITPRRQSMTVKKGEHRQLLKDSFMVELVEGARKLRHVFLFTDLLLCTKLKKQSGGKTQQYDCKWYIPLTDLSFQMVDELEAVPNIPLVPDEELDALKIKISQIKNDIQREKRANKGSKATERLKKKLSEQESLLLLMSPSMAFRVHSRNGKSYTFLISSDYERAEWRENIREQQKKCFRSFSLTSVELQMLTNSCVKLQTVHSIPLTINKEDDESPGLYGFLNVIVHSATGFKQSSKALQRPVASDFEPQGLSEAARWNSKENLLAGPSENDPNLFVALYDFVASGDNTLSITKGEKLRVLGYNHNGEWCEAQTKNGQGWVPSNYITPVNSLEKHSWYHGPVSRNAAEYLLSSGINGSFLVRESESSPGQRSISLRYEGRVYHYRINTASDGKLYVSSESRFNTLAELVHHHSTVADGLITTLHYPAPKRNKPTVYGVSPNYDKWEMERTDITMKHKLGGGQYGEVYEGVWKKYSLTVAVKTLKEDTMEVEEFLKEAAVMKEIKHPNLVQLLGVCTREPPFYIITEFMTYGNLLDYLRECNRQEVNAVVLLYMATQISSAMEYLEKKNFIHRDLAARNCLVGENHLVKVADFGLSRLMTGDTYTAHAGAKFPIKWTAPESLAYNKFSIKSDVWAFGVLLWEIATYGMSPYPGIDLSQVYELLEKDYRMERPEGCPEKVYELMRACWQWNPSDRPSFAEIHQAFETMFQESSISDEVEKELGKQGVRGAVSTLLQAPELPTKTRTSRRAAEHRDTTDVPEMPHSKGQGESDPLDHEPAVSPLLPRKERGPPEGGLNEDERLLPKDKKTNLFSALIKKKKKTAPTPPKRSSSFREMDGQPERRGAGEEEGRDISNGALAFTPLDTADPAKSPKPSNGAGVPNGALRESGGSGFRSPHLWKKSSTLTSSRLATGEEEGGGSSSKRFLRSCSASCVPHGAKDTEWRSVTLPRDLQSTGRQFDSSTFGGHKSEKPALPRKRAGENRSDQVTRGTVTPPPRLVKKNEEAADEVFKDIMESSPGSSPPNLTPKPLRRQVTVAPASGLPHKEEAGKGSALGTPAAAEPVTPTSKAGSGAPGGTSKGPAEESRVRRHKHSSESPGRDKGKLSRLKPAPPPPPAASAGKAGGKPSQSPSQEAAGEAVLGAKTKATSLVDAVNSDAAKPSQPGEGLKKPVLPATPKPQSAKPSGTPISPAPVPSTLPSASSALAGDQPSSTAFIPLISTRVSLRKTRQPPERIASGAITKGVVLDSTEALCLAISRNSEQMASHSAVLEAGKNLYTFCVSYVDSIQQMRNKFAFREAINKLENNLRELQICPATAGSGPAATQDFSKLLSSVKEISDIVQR

For `N#C/C(=C/c1ccc(O)c(O)c1)C(=O)NCc1ccccc1` [AG490], in data set [1], the “Inhibition of Bcr-Abl activity over the range studied” value is “do not inhibit”.
The same measure, in the same setting: with `COc1cc2ncc(-c3ccccc3)nc2cc1OC` [AG1296] the entry was “do not inhibit”.
Consider `COc1cc2ncnc(Nc3cccc(Cl)c3)c2cc1OC` [AG1478], for which, in data set [1], the IC50 was ~100 µM, the “Inhibition of Bcr-Abl activity at 100 μM” value is on record as “Significant inhibition” and the “Inhibition of Bcr-Abl activity at 1 mM” value was “Significant inhibition”. Moreover, the “Inhibition of Bcr-Abl activity at 100 μM” value in data set [1] (listed as AG 1478) is recorded as “slight inhibition”.
With `Cc1ccc(NC(=O)c2ccc(CN3CCN(C)CC3)cc2)cc1Nc1nccc(-c2cccnc2)n1` [Glivec], in data set [2] (CML patients), the Complete cytogenetic remission is 41 % of patients and the Side effects entry is listed as “much milder side effects”.
`C[C@@H](Nc1ncnc2[nH]c(-c3ccc(O)cc3)cc12)c1ccccc1` [PKI166]: in data set [1], the IC50 was ~100 µM, the “Inhibition of Bcr-Abl activity at 100 μM” value is “Significant inhibition” and the “Inhibition of Bcr-Abl activity at 1 mM” value was “Significant inhibition”. The “Inhibition of Bcr-Abl activity at 100 μM” value in data set [1] (listed as PKI 166) was “slight inhibition”.
“GST-EEEIYGEFE: GST-peptide fusion (SEQ. ID. NO: 1) carrying the consensus sequence for c-Src tyrosine phosphorylation ({GST}-EEEIYGEFE)”: the “Vmax, phosphorylation by c-Src in solution” value in data set [3] is given as 8.1±3.1 arbitrary units. The Km in data set [3] (read-out: Km, phosphorylation by c-Src in solution) amounted to 2.7 ± 1 µM; in data set [4] (surface reaction, polyacrylamide hydrogel spot, Lineweaver-Burk plot, read-out: Km, phosphorylation by c-Src of surface-immobilized substrate), 0.36 ± 0.033 µM. Moreover, the “Vmax, phosphorylation by c-Src of surface-immobilized substrate” value in data set [4] (surface reaction, polyacrylamide hydrogel spot, Lineweaver-Burk plot) is on record as 9.7±0.63 arbitrary units. Also, the “Km of surface reaction lower than in solution” value in data set [4] (surface vs. solution) is on record as “approximately 10 fold”.
Take H-EAIYAAPFAKKK-OH [Abl peptide]: in data set [5], the Extent of phosphorylation result was “approximately 90%”.
In the case of α-interferon, in data set [2] (CML patients), the “Survival as compared to conventional chemotherapy” value is on record as “prolong survival by about a year”. Moreover, in data set [2] (human, in vivo), the Side effects entry is on record as “significant side effects”.
